# Experimental data from patent US10696671B2, “Imidazo[1,2-A]pyridine derivatives, methods for preparing the same and use thereof” (Jeil Pharmaceutical Co., Ltd., priority 2016, dated 2020).
# Biological target: T1, proton pump (H+/K+-ATPase), porcine gastric vesicles (Sus scrofa, UniProt P19156)
# T1 construct: reaction buffer (50 mmol/L Tris-Hepes buffer, pH 6.4) containing porcine gastric vesicles; from tissue; host or cells: porcine gastric mucosa (gastric vesicles prepared by centrifugation)
# T1 sequence (P19156 2-1034 limits assumed): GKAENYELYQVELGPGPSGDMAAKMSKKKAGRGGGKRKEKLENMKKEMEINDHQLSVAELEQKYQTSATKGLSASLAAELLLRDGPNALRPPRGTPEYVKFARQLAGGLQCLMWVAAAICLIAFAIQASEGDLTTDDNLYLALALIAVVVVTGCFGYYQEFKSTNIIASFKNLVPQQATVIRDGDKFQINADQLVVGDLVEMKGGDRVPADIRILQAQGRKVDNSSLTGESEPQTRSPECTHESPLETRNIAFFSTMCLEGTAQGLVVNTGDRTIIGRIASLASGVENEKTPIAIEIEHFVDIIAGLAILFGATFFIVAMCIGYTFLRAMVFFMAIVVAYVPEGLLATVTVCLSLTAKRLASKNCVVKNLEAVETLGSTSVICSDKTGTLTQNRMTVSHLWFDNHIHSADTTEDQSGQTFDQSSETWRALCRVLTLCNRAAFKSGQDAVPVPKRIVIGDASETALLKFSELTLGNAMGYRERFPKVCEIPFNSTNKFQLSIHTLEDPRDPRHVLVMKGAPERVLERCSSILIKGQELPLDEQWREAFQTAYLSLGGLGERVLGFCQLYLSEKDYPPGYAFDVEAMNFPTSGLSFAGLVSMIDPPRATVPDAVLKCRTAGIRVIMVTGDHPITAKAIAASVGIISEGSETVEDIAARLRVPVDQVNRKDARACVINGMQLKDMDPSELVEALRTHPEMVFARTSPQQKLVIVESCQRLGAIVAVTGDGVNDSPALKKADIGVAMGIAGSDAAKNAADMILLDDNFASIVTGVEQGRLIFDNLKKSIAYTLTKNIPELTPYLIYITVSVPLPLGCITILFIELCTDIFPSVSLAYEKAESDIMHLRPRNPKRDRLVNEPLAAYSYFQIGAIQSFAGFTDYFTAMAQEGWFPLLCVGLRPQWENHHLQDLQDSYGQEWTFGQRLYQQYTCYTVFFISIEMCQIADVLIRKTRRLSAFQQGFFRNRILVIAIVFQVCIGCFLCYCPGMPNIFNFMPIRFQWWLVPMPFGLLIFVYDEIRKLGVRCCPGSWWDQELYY
# T1 sequence (P18434 whole entry partner): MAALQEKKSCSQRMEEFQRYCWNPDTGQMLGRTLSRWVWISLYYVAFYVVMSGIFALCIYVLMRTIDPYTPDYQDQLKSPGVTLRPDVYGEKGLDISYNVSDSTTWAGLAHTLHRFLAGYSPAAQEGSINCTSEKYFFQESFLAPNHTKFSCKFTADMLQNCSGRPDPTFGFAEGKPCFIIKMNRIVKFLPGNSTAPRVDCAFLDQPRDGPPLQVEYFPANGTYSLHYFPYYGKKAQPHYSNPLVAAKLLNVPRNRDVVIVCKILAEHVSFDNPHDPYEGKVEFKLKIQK
# Assay: Inhibitory effects against proton pump (H+/K+-ATPase) activity, malachite green phosphate assay
# Type: biochemical
# Conditions: pH 6.4, 37° C., K+-dependent activity
# Procedure: Test Example 1: Preparation of Gastric Vesicles
# Gastric vesicles used in the experiment were prepared by separation from porcine gastric mucosa according to a centrifugation method [Saccomani G, et al., A Nonelectrogenic H^+ Pump in Plasma Membranes of Hog Stomach, J Biol Chem., 1976, 251 (23), 7690-8]. Next, the protein content of the gastric vesicles was quantified using a bicinchoninic acid kit [Smith P K, et al., Measurement of protein using bicinchoninic acid, Anal Biochem., 1985, 150 (1), 76-85)].
# Test Example 2: Measurement of Inhibitory Effects Against Proton Pump (H^+/K^+-ATPase) Activity
# The inhibitory effects of the compounds against proton pump activity were calculated based on the pump activity determined in the presence of K^+ ions excluding the pump activity determined in the absence of K^+ ions. The inhibitory effects against proton pump activity were measured in 96-well plates, and all reactions were performed with a reaction volume of […] at 37° C. Specifically, 10 μm of valinomycin and each concentration of each compound were pre-incubated in a reaction buffer (50 mmol/L Tris-Hepes buffer, pH 6.4) containing porcine gastric vesicles for 15 minutes. For negative and positive control groups, 1% DMSO was added to buffer, and for test groups, 1% DMSO and a dilution of each concentration of each compound were added. Next, 0.2 mmol/L of adenosine triphosphate (ATP) was added to the reaction buffer and incubated at 37° C. for 40 minutes. After completion of the incubation, a malachite green solution was added to the reaction buffer and incubated for 30 minutes, and the amount of inorganic phosphate in the reaction buffer was measured by colorimetry using a malachite green phosphate assay Kit (Bioassay Systems). For colorimetry, the OD (optical density) at 620 nm was measured using a microplate reader [Synergy H4, hybrid multimode microplate reader, BioTek]. The percent inhibition of proton pump (H^+/K^+-ATPase) was determined based on the OD value of the control group and the OD values of various concentrations of the test compounds, and the IC50 of each test compound was calculated using the Logistic 4-parameter function of Sigmaplot 8.0 program.
row,SMILES,IC50 [nM]
1,"CC(=O)OC1CN(C(=O)c2cc(NCc3c(C)cccc3C)c3nc(C)c(C)n3c2)C1 [Example 2, 1-{8-[(2,6-dimethylbenzyl)amino]-2,3-dimethylimidazo[1,2-α]pyridine-6-carbonyl}azetidin-3-yl acetate]",128
2,"COC1CN(C(=O)c2cc(NCc3c(C)cccc3C)c3nc(C)c(C)n3c2)C1 [Example 3, {8-[(2,6-dimethylbenzyl)amino]-2,3-dimethylimidazo[1,2-α]pyridin-6-yl}(3-methoxyazetidin-1-yl)methanone]",90
3,"CCOC1CN(C(=O)c2cc(NCc3c(C)cccc3C)c3nc(C)c(C)n3c2)C1 [Example 4, {8-[(2,6-dimethylbenzyl)amino]-2,3-dimethylimidazo[1,2-α]pyridin-6-yl}(3-ethoxyazetidin-1-yl)methanone]",93
4,"COC(=O)C1CN(C(=O)c2cc(NCc3c(C)cccc3C)c3nc(C)c(C)n3c2)C1 [Example 10, methyl 1-{8-[(2,6-dimethylbenzyl)amino]-2,3-dimethylimidazo[1,2-α]pyridine-6-carbonyl}azetidine-3-carboxylate]",48
5,"Cc1cccc(C)c1CNc1cc(C(=O)N2CC(C)(CO)C2)cn2c(C)c(C)nc12 [Example 14, {8-[(2,6-dimethylbenzyl)amino]-2,3-dimethylimidazo[1,2-α]pyridin-6-yl}[3-(hydroxymethyl)-3-methylazetidin-1-yl]methanone]",104
6,"Cc1cccc(C)c1CNc1cc(C(=O)N2CC(C(C)(C)O)C2)cn2c(C)c(C)nc12 [Example 16, {8-[(2,6-dimethylbenzyl)amino]-2,3-dimethylimidazo[1,2-α]pyridin-6-yl}[3-(2-hydroxypropan-2-yl)azetidin-1-yl]methanone]",122
7,"Cc1cccc(C)c1CNc1cc(C(=O)N2CCC2CO)cn2c(C)c(C)nc12 (stereo not drawn) [Example 17, {8-[(2,6-dimethylbenzyl)amino]-2,3-dimethylimidazo[1,2-α]pyridin-6-yl}[2-(hydroxymethyl)azetidin-1-yl]methanone]",180
8,"Cc1cccc(C)c1CNc1cc(C(=O)N2CC(S(C)(=O)=O)C2)cn2c(C)c(C)nc12 [Example 19, {8-[(2,6-dimethylbenzyl)amino]-2,3-dimethylimidazo[1,2-α]pyridin-6-yl}[3-(methylsulfonyl)azetidin-1-yl]methanone]",117
9,"Cc1cccc(C)c1CNc1cc(C(=O)N2CC(CCO)C2)cn2c(C)c(C)nc12 [Example 20, {8-[(2,6-dimethylbenzyl)amino]-2,3-dimethylimidazo[1,2-α]pyridin-6-yl}[3-(2-hydroxyethyl)azetidin-1-yl]methanone]",46
10,"Cc1cccc(C)c1CNc1cc(C(=O)N2CC3(COC3)C2)cn2c(C)c(C)nc12 [Example 22, {8-[(2,6-dimethylbenzyl)amino]-2,3-dimethylimidazo[1,2-α]pyridin-6-yl}(2-oxa-6-azaspiro[3.3]heptan-6-yl)methanone]",79
11,"Cc1ccccc1CNc1cc(C(=O)N2CC(O)C2)cn2c(C)c(C)nc12 [Example 23, {2,3-dimethyl-8-[(2-methylbenzyl)amino]imidazo[1,2-α]pyridin-6-yl}(3-hydroxyazetidin-1-yl)methanone]",374
12,"Cc1cc(F)ccc1CNc1cc(C(=O)N2CC(O)C2)cn2c(C)c(C)nc12 [Example 27, {8-[(4-fluoro-2-methylbenzyl)amino]-2,3-dimethylimidazo[1,2-α]pyridin-6-yl}(3-hydroxyazetidin-1-yl)methanone]",135
13,"Cc1cc(F)ccc1CNc1cc(C(=O)N2CCC2)cn2c(C)c(C)nc12 [Example 28, azetidin-1-yl {8-[(4-fluoro-2-methylbenzyl)amino]-2,3-dimethylimidazo[1,2-α]pyridin-6-yl}methanone]",103
14,"Cc1cc(F)ccc1CNc1cc(C(=O)N2CC(C)C2)cn2c(C)c(C)nc12 [Example 30, {8-[(4-fluoro-2-methylbenzyl)amino]-2,3-dimethylimidazo[1,2-α]pyridin-6-yl}(3-methylazetidin-1-yl)methanone]",271
15,"Cc1cc(F)ccc1CNc1cc(C(=O)N2CC(C)(O)C2)cn2c(C)c(C)nc12 [Example 31, {8-[(4-fluoro-2-methylbenzyl)amino]-2,3-dimethylimidazo[1,2-α]pyridin-6-yl}(3-hydroxy-3-methylazetidine-1-yl)methanone]",662
16,"COC1(C)CN(C(=O)c2cc(NCc3c(C)cccc3C)c3nc(C)c(C)n3c2)C1 [Example 32, {8-[(2,6-dimethylbenzyl)amino]-2,3-dimethylimidazo[1,2-α]pyridin-6-yl}(3-methoxy-3-methylazetidin-1-yl)methanone]",187
17,"Cc1cc(F)cc(C)c1CNc1cc(C(=O)N2CCC2)cn2c(C)c(C)nc12 [Example 35, azetidin-1-yl{8-[(4-fluoro-2,6-dimethylbenzyl)amino]-2,3-dimethylimidazo[1,2-α]pyridin-6-yl}methanone]",16
18,"Cc1cc(F)cc(C)c1CNc1cc(C(=O)N2CC(C)C2)cn2c(C)c(C)nc12 [Example 37, {8-[(4-fluoro-2,6-dimethylbenzyl)amino]-2,3-dimethylimidazo[1,2-α]pyridin-6-yl}(3-methylazetidin-1-yl)methanone]",21
19,"Cc1cc(F)cc(C)c1CNc1cc(C(=O)N2CC(C)(O)C2)cn2c(C)c(C)nc12 [Example 38, {8-[(4-fluoro-2,6-dimethylbenzyl)amino]-2,3-dimethylimidazo[1,2-α]pyridin-6-yl}(3-hydroxy-3-methylazetidin-1-yl)methanone]",41
20,"COCC1CN(C(=O)c2cc(NCc3c(C)cc(F)cc3C)c3nc(C)c(C)n3c2)C1 [Example 40, {8-[(4-fluoro-2,6-dimethylbenzyl)amino]-2,3-dimethylimidazo[1,2-α]pyridin-6-yl}[3-(methoxymethyl)azetidin-1-yl]methanone]",134

# Other lines, results leading:
row,IC50 [nM],SMILES
1,117,"COCCOC1CN(C(=O)c2cc(NCc3c(C)cccc3C)c3nc(C)c(C)n3c2)C1 [Example 5, {8-[(2,6-dimethylbenzyl)amino]-2,3-dimethylimidazo[1,2-α]pyridin-6-yl}[3-(2-methoxyethoxy)azetidin-1-yl]methanone]"
2,65,"COCC1CN(C(=O)c2cc(NCc3c(C)cccc3C)c3nc(C)c(C)n3c2)C1 [Example 12, {8-[(2,6-dimethylbenzyl)amino]-2,3-dimethylimidazo[1,2-α]pyridin-6-yl}[3-(methoxymethyl)azetidin-1-yl]methanone]"
3,119,"Cc1cccc(C)c1CNc1cc(C(=O)N2CC(F)(CO)C2)cn2c(C)c(C)nc12 [Example 13, {8-[(2,6-dimethylbenzyl)amino]-2,3-dimethylimidazo[1,2-α]pyridin-6-yl}[3-fluoro-3-(hydroxymethyl)azetidin-1-yl]methanone]"
4,72,"Cc1cccc(C)c1CNc1cc(C(=O)N2CC(C(C)O)C2)cn2c(C)c(C)nc12 (stereo not drawn) [Example 15, {8-[(2,6-dimethylbenzyl)amino]-2,3-dimethylimidazo[1,2-α]pyridin-6-yl}[3-(1-hydroxyethyl)azetidin-1-yl]methanone]"
5,140,"CC(=O)C1CN(C(=O)c2cc(NCc3c(C)cccc3C)c3nc(C)c(C)n3c2)C1 [Example 18, 1-{1-[8-({2,6-dimethylbenzyl}amino)-2,3-dimethylimidazo[1,2-α]pyridine-6-carbonyl]azetidin-3-yl}ethanone]"
6,600,"Cc1cccc(C)c1CNc1cc(C(=O)N2CC3(CNC3)C2)cn2c(C)c(C)nc12 [Example 21, {8-[(2,6-dimethylbenzyl)amino]-2,3-dimethylimidazo[1,2-α]pyridin-6-yl}(2,6-diazaspiro[3.3]heptan-2-yl)methanone]"
7,645,"Cc1cc(F)ccc1CNc1cc(C(=O)N2CC(F)C2)cn2c(C)c(C)nc12 [Example 29, {8-[(4-fluoro-2-methylbenzyl)amino]-2,3-dimethylimidazo[1,2-α]pyridin-6-yl}(3-fluoroazetidin-1-yl)methanone]"
8,149,"Cc1ccc(F)c(C)c1CNc1cc(C(=O)N2CC(O)C2)cn2c(C)c(C)nc12 [Example 41, {8-[(3-fluoro-2,6-dimethylbenzyl)amino]-2,3-dimethylimidazo[1,2-α]pyridin-6-yl}(3-hydroxyazetidin-1-yl)methanone]"
9,85,"Cc1ccc(F)c(C)c1CNc1cc(C(=O)N2CCC2)cn2c(C)c(C)nc12 [Example 42, azetidin-1-yl{8-[(3-fluoro-2,6-dimethylbenzyl)amino]-2,3-dimethylimidazo[1,2-α]pyridin-6-yl}methanone]"
10,174,"Cc1ccc(F)c(C)c1CNc1cc(C(=O)N2CC(F)C2)cn2c(C)c(C)nc12 [Example 43, {8-[(3-fluoro-2,6-dimethylbenzyl)amino]-2,3-dimethylimidazo[1,2-α]pyridin-6-yl}(3-fluoroazetidin-1-yl)methanone]"
